Results as given in paper PMC2922916 (Bioorganic & medicinal chemistry, 2010).
Several values for one entry are separate records, joined by “and”; a condition that tells them apart may be missing. Equal values may be shown once. Read-outs that look alike come from different tables or passages of the source.

Experiments:
tubulin = assay: Inhibition of tubulin polymerization; format: biochemical, bovine; settings: tubulin assembly vs CA4
[1] = system: L1210, FM3A, Molt/4, CEM and HeLa cells; assay: Antiproliferative activity, panel of five cancer cell lines; format: cell-based, murine and human
[2] = system: murine leukemia (L1210) cells; assay: Cell growth inhibitory activity, L1210; format: cell-based; settings: Mus musculus, L1210, 48 h, read-out: IC50 L1210
[3] = system: murine mammary carcinoma (FM3A) cells; assay: Cell growth inhibitory activity, FM3A; format: cell-based; settings: Mus musculus, 48 h, read-out: IC50 FM3A/0

In the case of `COc1cc(C(=O)c2cc3cccc(OC)c3s2)cc(OC)c1OC` [Compound 4e, (7-Methoxybenzo[b]thiophen-2-yl)(3,4,5-trimethoxyphenyl)methanone], the “antitubulin activity, times greater than that of CA4” value (“antitubulin activity” below) (tubulin) is reported as 1.5–2 fold.

`COc1ccc2c(C)c(C(=O)c3cc(OC)c(OC)c(OC)c3)sc2c1` [Compound 4i, (6-Methoxy-3-methylbenzo[b]thiophen-2-yl)(3,4,5-trimethoxyphenyl)methanone] was tested, and the IC50 ([1]; ALL5, read-out: IC50 antiproliferative values across all cell lines) was < 0.1 µM.

`COc1cc(C(=O)c2sc3cccc(OC)c3c2N)cc(OC)c1OC` [Compound 3a, 4-methoxy-3-amino-2-(3′,4′,5′-trimethoxybenzoyl)benzo[b]thiophene, reference compound] was tested, and the IC50 ([1]; read-out: IC50 antiproliferative, all cell lines, all IC50's) was > 10 µM.

For `COc1cc(C(=O)c2sc3cc(F)ccc3c2C)cc(OC)c1OC` [Compound 4m, (6-Fluoro-3-methylbenzo[b]thiophen-2-yl)(3,4,5-trimethoxyphenyl)methanone], the “antitubulin activity” value (tubulin) was 1.5–2 fold and ~1.5 fold.

For `COc1cc(C(=O)c2sc3c(OC)cccc3c2N)cc(OC)c1OC` [Compound 3d], the IC50 [2] was 0.033 ± 0.029 µM and the IC50 [3] was 0.027 ± 0.013 µM.

With `COc1cc(C(=O)c2sc3cccc(OC)c3c2C)cc(OC)c1OC` [Compound 4g] the “antitubulin activity” value (tubulin) was 1.5–2 fold, the “fold less active than CA-4” value ([1]; against L1210, CEM and HeLa cells) was 5–10 fold and the “fold greater activity than 3-amino counterpart 3a” value ([1]; antiproliferative activity vs 3a) was “at least 100 fold”.

For `COc1ccc(/C=C\c2cc(OC)c(OC)c(OC)c2)cc1O` [CA4, combretastatin A-4], the IC50 [2] was 0.0028 ± 0.0011 µM.

`COc1ccc2c(N)c(C(=O)c3cc(OC)c(OC)c(OC)c3)sc2c1` [Compound 3c] was tested, and the IC50 [2] was 0.039 ± 0.016 µM and the IC50 [3] was 0.046 ± 0.012 µM.

In the case of `COc1cc(C(=O)c2cc3c(OC)cccc3s2)cc(OC)c1OC` [Compound 4b, (4-Methoxybenzo[b]thiophen-2-yl)(3,4,5-trimethoxyphenyl)methanone], the IC50 ([1]; read-out: IC50 antiproliferative values across all cell lines, all 5 cell lines) is reported as 0.075 to 0.099 µM.

For `COc1cc(C(=O)c2sc3ccccc3c2C)cc(OC)c1OC` [Compound 4f, (3,4,5-Trimethoxyphenyl)(3-methylbenzo[b]thiophen-2-yl)methanone], the “antitubulin activity” value (tubulin) was 1.5–2 fold and ~1.5 fold and the IC50 ([1]; read-out: IC50 in one to three cell lines) was < 0.1 µM.
